# What was measured:
# BMDM [1] = assay: Cytotoxicity against mouse Bone marrow macrophage at 10 uM measured after 72 hrs by MTT assay; type: toxicity, cell-based
# BMDM [2] = assay: Inhibition of osteoclastogenesis in C57BL/6J mouse Bone marrow macrophage cells assessed as inhibition of RANKL-stimulated osteoclast formation measured after 6 days by tartrate-resistant acid phosphatase (TRAP) staining assay; conditions: 144 h
# [3] = biological target: T1, Peroxisome proliferator-activated receptor gamma (Homo sapiens, UniProt P37231); assay: Antagonist activity at PPAR gamma LBD (203 to 476 residues) (unknown origin) expressed in HEK293T cells co-transfected with pCMV-GAL4-PPARgamma-LBD-SV40-Renilla-luciferase assessed as reduction of rosiglitazone induced PPAR-gamma activation incubated for 24 hrs by dural-luciferase reporter assay; type: cell-based
# T1 sequence (P37231 whole entry): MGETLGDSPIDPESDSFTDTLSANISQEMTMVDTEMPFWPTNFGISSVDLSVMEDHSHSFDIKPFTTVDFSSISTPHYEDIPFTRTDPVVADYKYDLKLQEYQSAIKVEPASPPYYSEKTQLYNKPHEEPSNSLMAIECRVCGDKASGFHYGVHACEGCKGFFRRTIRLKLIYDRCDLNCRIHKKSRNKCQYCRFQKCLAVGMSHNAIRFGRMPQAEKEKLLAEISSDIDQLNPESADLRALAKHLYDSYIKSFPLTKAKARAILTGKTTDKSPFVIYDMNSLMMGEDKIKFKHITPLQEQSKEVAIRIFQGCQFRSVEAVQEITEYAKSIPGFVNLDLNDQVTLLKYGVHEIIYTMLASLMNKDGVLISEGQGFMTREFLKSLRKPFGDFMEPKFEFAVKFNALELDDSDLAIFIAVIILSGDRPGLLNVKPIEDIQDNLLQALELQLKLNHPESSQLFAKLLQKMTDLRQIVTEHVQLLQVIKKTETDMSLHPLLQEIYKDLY
# BMDM [4] = assay: cells; conditions: Mus musculus, 144 h, read-out: INH
# Description: Inhibition of osteoclastogenesis in C57BL/6J mouse Bone marrow macrophage cells assessed as inhibition of RANKL-stimulated osteoclast formation at 10 uM measured after 6 days by tartrate-resistant acid phosphatase (TRAP) staining assay relative to control
SMILES,Activity (BMDM [1]),IC50 (BMDM [2]) [µM],IC50 [3] [µM],inhibition at 10 µM (BMDM [4]) [%]
C/C=C(\C)C(=O)OC[C@]12[C@H]3CCC[C@@]1(O)CO[C@@]2(O)C[C@H](C)[C@@]3(C)CCC1=CC(=O)OC1,Non-Toxic,1.04,8.18,
COC(=O)[C@@H]1CCC[C@@H]2[C@@](C)(C[C@H](OC(=O)C(C)C)C3=CC(=O)OC3)[C@H](C)C[C@H](O)[C@]21C,Non-Toxic,1.79,12.5,> 50
C[C@@H]1C[C@H](O)[C@@]2(COC(=O)/C=C/c3ccc(C(F)(F)F)cc3)C(=O)CCC[C@@H]2[C@@]1(C)CCC1=CC(=O)OC1,Non-Toxic,,,
C/C=C(\C)C(=O)OC[C@@]12[C@H](CCC[C@]13CO3)[C@@](C)(CCC1=CC(=O)OC1)[C@H](C)C[C@@H]2O,Non-Toxic,,,
C/C=C(\C)C(=O)O[C@@H]1CC[C@]2(CO2)[C@]2(COC(C)=O)[C@@H](OC(C)=O)C[C@@H](C)[C@](C)(CC(=O)C3=CC(=O)OC3)[C@@H]12,Non-Toxic,> 10,> 20,
C/C=C(\C)C(=O)O[C@@H](C[C@@]1(C)[C@H](C)C[C@H](OC(C)=O)[C@]2(COC(C)=O)[C@@H]1[C@H](OC(C)=O)CC[C@]21CO1)C1=CC(=O)OC1 [AJUGANIPPONIN A],Non-Toxic,,11.6,
C/C=C(\C)C(=O)O[C@@H]1CC[C@]2(CO2)[C@]2(COC(C)=O)[C@@H](OC(C)=O)C[C@@H](C)[C@](C)(C[C@H](OC(C)=O)C3=CC(=O)OC3)[C@@H]12 [AJUGAMARIN A2],Non-Toxic,,,
C/C=C(\C)C(=O)O[C@@H](C[C@@]1(C)[C@H](C)C[C@H](OC(C)=O)[C@]2(COC(C)=O)[C@@H]1CCC[C@]2(O)CCl)C1=CC(=O)OC1,Non-Toxic,,,
C/C=C(\C)C(=O)O[C@@H](C[C@@]1(C)[C@H](C)C[C@H](O)[C@]2(C)[C@@H]1CCC[C@H]2C(=O)OC)C1=CC(=O)OC1,Non-Toxic,1.42,,> 50
C[C@@H]1C[C@H](O)[C@@]2(COC(=O)c3ccc(C(F)(F)F)cc3)C(=O)CCC[C@@H]2[C@@]1(C)CCC1=CC(=O)OC1,Non-Toxic,,,
C/C=C(\C)C(=O)O[C@@H]1CC[C@]2(CO2)[C@@]2(COC(C)=O)[C@H]1[C@@](C)(C[C@H](OC(C)=O)C1=CC(=O)OC1)[C@H](C)C[C@@H]2O,Non-Toxic,,,
C/C=C(\C)C(=O)O[C@@H]1CC[C@](O)(CCl)[C@]2(COC(C)=O)[C@@H](OC(C)=O)C[C@@H](C)[C@](C)(C/C=C(/C=O)CC(=O)OC)[C@@H]12,Non-Toxic,> 10,> 20,
C/C=C(\C)C(=O)OC[C@@]12[C@@H](OC(C)=O)C[C@@H](C)[C@](C)(CCC3=CC(=O)OC3)[C@H]1CCC[C@]2(O)CCl [AJUGACUMBIN A CHLOROHYDRIN],Non-Toxic,1.11,10.2,> 50
C/C=C(\C)C(=O)OC[C@@]12[C@@H](OC(C)=O)C[C@@H](C)[C@](C)(CCC3=CC(=O)OC3)[C@H]1CCC[C@]2(O)COC(C)=O,Non-Toxic,6.12,> 20,
CCC(C)C(=O)O[C@@H]1CC[C@]2(CO2)[C@]2(COC(C)=O)[C@@H](OC(C)=O)C[C@@H](C)[C@](C)(C[C@H](O)C3=CC(=O)OC3)[C@@H]12 (stereo partly specified) [DIHYDROAJUGAMARIN],Non-Toxic,,,
C/C=C(\C)C(=O)OC[C@@]12C(=O)C[C@@H](C)[C@](C)(CCC3=CC(=O)OC3)[C@H]1CCC[C@]2(O)CCl,Toxic,,,
C[C@@H]1C[C@H](O)[C@@]2(COC(=O)/C=C/c3ccc(F)cc3)C(=O)CCC[C@@H]2[C@@]1(C)CCC1=CC(=O)OC1,Non-Toxic,,,
C/C=C(\C)C(=O)OC[C@@]12[C@H](CCC[C@]1(O)CCl)[C@@](C)(CCC1=CC(=O)OC1)[C@H](C)C[C@@H]2O,Non-Toxic,1.77,10.4,> 50
CC(=O)OC[C@@]12[C@@H](OC(C)=O)C[C@@H](C)[C@](C)(C[C@H](OC(C)=O)C3=CC(=O)OC3)[C@H]1[C@H](O)CC[C@]21CO1,Non-Toxic,5.1,13,> 50
COC(=O)[C@@H]1CCC[C@@H]2[C@@](C)(C[C@@H]3OC(=O)C=C3CO)[C@H](C)C[C@H](O)[C@]21C,Non-Toxic,,,
C/C=C(\C)C(=O)O[C@@H](C[C@@]1(C)[C@H](C)C[C@H](OC(C)=O)[C@]2(COC(C)=O)[C@@H]1[C@H](O)CC[C@]21CO1)C1=CC(=O)OC1,Non-Toxic,4.68,19.5,> 50
C/C=C(\C)C(=O)OC[C@@]12[C@H](CCC[C@]1(O)CCl)[C@@](C)(C[C@H](O)C1=CC(=O)OC1)[C@H](C)C[C@@H]2O,Non-Toxic,1.72,11.5,> 50

SMILES,Activity (BMDM [1]),IC50 (BMDM [2]) [µM],IC50 [3] [µM],inhibition at 10 µM (BMDM [4]) [%]
O=C(Nc1ccncc1)c1cc([N+](=O)[O-])ccc1Cl,,0.067,,
C/C=C(\C)C(=O)OC[C@]12C(=O)CCC[C@@H]1[C@@](C)(CCC1=CC(=O)OC1)[C@H](C)C[C@@H]2OC(C)=O,Non-Toxic,,,
NCCCC(O)(P(=O)(O)O)P(=O)(O)O [ALENDRONIC ACID],,4.22,,> 50
CC(=O)OC[C@@]12[C@@H](OC(C)=O)C[C@@H](C)[C@](C)(CCC3=CC(=O)OC3)[C@H]1CCC[C@]21CO1 [AJUGARIN I],Non-Toxic,3.71,12,> 50
C[C@@H]1C[C@H](O)[C@@]23COC[C@@H]2CCC[C@@H]3[C@@]1(C)CCC1=CC(=O)OC1,Non-Toxic,,,
CC(=O)O[C@H]1C[C@@H](C)[C@](C)(CCC2=CC(=O)OC2)[C@H]2CCCC(=O)[C@]12CO,Non-Toxic,> 10,> 20,
C/C=C(\C)C(=O)OC[C@@]12[C@@H](OC(C)=O)C[C@@H](C)[C@](C)(CCC3=CC(=O)OC3)[C@H]1CCC[C@H]2C(=O)O,Non-Toxic,,,
COC(=O)[C@@H]1CCC[C@@H]2[C@@](C)(C[C@H](O)C3=CC(=O)OC3)[C@H](C)C[C@H](O)[C@]21C,Non-Toxic,,,
CC(=O)OC[C@@]12[C@@H](OC(C)=O)C[C@@H](C)[C@](C)(C[C@H](OC(C)=O)C3=CC(=O)OC3)[C@H]1[C@H](OC(C)=O)CC[C@]21CO1 [AJUGAPANTIN A],Non-Toxic,,,
C/C=C(\C)C(=O)OC[C@@]12C(=O)C[C@@H](C)[C@](C)(CCC3=CC(=O)OC3)[C@H]1CCC[C@]21CO1,Non-Toxic,0.83,2.05,
C[C@@H]1C[C@H](O)[C@@]2(CO)C(=O)CCC[C@@H]2[C@@]1(C)CCC1=CC(=O)OC1,Non-Toxic,> 10,> 20,
C/C=C(\C)C(=O)O[C@@H](C[C@@]1(C)[C@H](C)C[C@H](OC(C)=O)[C@]2(COC(C)=O)[C@@H]1[C@H](OC(=O)/C(C)=C/C)CC[C@]21CO1)C1=CC(=O)OC1 [AJUGATAKASIN A],Non-Toxic,,,
C/C=C(\C)C(=O)O[C@@H]1CC[C@]2(CO2)[C@]2(COC(C)=O)[C@@H](OC(C)=O)C[C@@H](C)[C@](C)(C[C@H](O)C3=CC(=O)OC3)[C@@H]12 [AJUGAMARIN A1],Non-Toxic,,,
C[C@@H]1C[C@H](O)[C@@]2(COC(=O)c3ccc(N(C)C)cc3)C(=O)CCC[C@@H]2[C@@]1(C)CCC1=CC(=O)OC1,Non-Toxic,0.31,,
COC(=O)[C@@H]1CC[C@@H](O)[C@@H]2[C@@](C)(C[C@H](O)C3=CC(=O)OC3)[C@H](C)C[C@H](O)[C@]21C,Non-Toxic,,,
C[C@@H]1C[C@H](O)[C@@]2(COC(=O)c3ccc(F)cc3)C(=O)CCC[C@@H]2[C@@]1(C)CCC1=CC(=O)OC1,Non-Toxic,,,
CCC(C)C(=O)O[C@@H]1CC[C@]2(CO2)[C@]2(COC(C)=O)[C@@H](OC(C)=O)C[C@@H](C)[C@](C)(C[C@H](OC(C)=O)C3=CC(=O)OC3)[C@@H]12 (stereo partly specified),Non-Toxic,,,
C/C=C(\C)C(=O)O[C@@H]1CC[C@](O)(CCl)[C@]2(COC(C)=O)[C@@H](OC(C)=O)C[C@@H](C)[C@](C)(C[C@H](O)C3=CC(=O)OC3)[C@@H]12 [AJUGAMARIN A1 CHLOROHYDRIN],Non-Toxic,,,
C/C=C(\C)C(=O)OC[C@]12C(=O)CCC[C@@H]1[C@@](C)(CCC1=CC(=O)OC1)[C@H](C)CC2=O,Non-Toxic,2.71,13.3,
C/C=C(\C)C(=O)O[C@@H]1CC[C@]2(CO2)[C@]2(COC(C)=O)[C@@H](OC(C)=O)C[C@@H](C)[C@](C)(C[C@H](OC(=O)C(C)CC)C3=CC(=O)OC3)[C@@H]12 (stereo partly specified),Non-Toxic,,,
CC(=O)OC[C@@]12[C@@H](OC(C)=O)C[C@@H](C)[C@](C)(C[C@H](O)C3=CC(=O)OC3)[C@H]1CCC[C@]21CO1 [AJUGALIDE C],Non-Toxic,,,
C/C=C(\C)C(=O)OC[C@@]12[C@@H](OC(C)=O)C[C@@H](C)[C@](C)(C[C@H](O)C3=CC(=O)OC3)[C@H]1CCC[C@]21CO1,Non-Toxic,,,

# — ChEMBL document CHEMBL5579883, “Discovery of Novel Neo-Clerodane Derivatives as Potent Dual-Functional Antiosteoporosis Agents through Targeting Peroxisome Proliferator-Activated Receptor-γ” (J Med Chem, 2024)
